Measurements as given in patent publication US6420313B1, “Thienylalkylamino-1,3,5-triazines and the use thereof as herbicides” (Bayer Aktiengesellschaft, priority 1998, dated 2002).

Legend:
Format in all cases: in vivo
barley = assay: Post-emergence test/greenhouse, barley; details: after three weeks
Experimental: (§1) Solvent: 5 parts by weight of acetone
(§2) Emulsifier: 1 part by weight of alkylaryl polyglycol ether
(§3) To produce a suitable preparation of active compound, 1 part by weight of active compound is mixed with the stated amount of solvent, the stated amount of emulsifier is added and the concentrate is diluted with water to the desired concentration.
(§4) Test plants of a height of 5-15 cm are sprayed with the preparation of active compound such that the particular amounts of active compound desired are applied per unit area. The concentration of the spray liquor is chosen so that the particular amounts of active compound desired are applied in 1000 l of water/ha.
(§5) After three weeks, the degree of damage to the plants is rated in % damage in comparison to the development of the untreated control.
(§6) 0%=no effect (like untreated control)

wheat [1] = assay: Post-emergence test/greenhouse, wheat; details: after three weeks
Experimental: as §1, §2, §3, §4, §5, §6

Datura = assay: Post-emergence test/greenhouse, Datura; details: after three weeks
Experimental: as §1, §2, §3, §4, §5, §6

Ipomoea = assay: Post-emergence test/greenhouse, Ipomoea; details: after three weeks
Experimental: as §1, §2, §3, §4, §5, §6

Solanum [2] = assay: Post-emergence test/greenhouse, Solanum; details: after three weeks
Experimental: as §1, §2, §3, §4, §5, §6

Viola = assay: Post-emergence test/greenhouse, Viola; details: after three weeks
Experimental: as §1, §2, §3, §4, §5, §6

weeds [3] = assay: Post-emergence test, activity against weeds; details: result in words
Experimental: as §1, §2, §3, §4, §5, §6

[4] = tested on: crop plants, such as, for example, maize, barley and wheat; assay: Post-emergence test, tolerance by crop plants; details: result in words
Experimental: as §1, §2, §3, §4, §5, §6

Setaria = assay: Post-emergence test/greenhouse, Setaria; details: after three weeks
Experimental: as §1, §2, §3, §4, §5, §6

weeds [5] = assay: Pre-emergence test, activity against weeds; details: result in words
Experimental: as §1, §2, §3
(§7) Seeds of the test plants are sown in normal soil. After about 24 hours, the soil is sprayed with the preparation of active compound such that the particular amount of active compound desired is applied per unit area. The concentration of the spray liquor is chosen so that the particular amount of active compound desired is applied in 1000 liters of water per hectare.
as §5, §6

[6] = tested on: crop plants, such as, for example, cotton, maize, wheat and barley; assay: Pre-emergence test, tolerance by crop plants; details: result in words
Experimental: as §1, §2, §3, §7, §5, §6

Digitaria [7] = assay: Post-emergence test/greenhouse, digitaria; details: 500 g of ai./ha, after three weeks
Experimental: as §1, §2, §3, §4, §5, §6

maize [8] = assay: Post-emergence test/greenhouse, maize; details: 1000 g of ai./ha, after three weeks
Experimental: as §1, §2, §3, §4, §5, §6

Abutilon = assay: Post-emergence test/greenhouse, Abutilon; details: 1000 g of ai./ha, after three weeks
Experimental: as §1, §2, §3, §4, §5, §6

Amaranthus [9] = assay: Post-emergence test/greenhouse, Amaranthus; details: 1000 g of ai./ha, after three weeks
Experimental: as §1, §2, §3, §4, §5, §6

Sinapis [10] = assay: Post-emergence test/greenhouse, Sinapis; details: 1000 g of ai./ha, after three weeks
Experimental: as §1, §2, §3, §4, §5, §6

maize [11] = assay: Pre-emergence test/greenhouse, maize; details: after three weeks
Experimental: as §1, §2, §3, §7, §5, §6

Alopecurus = assay: Pre-emergence test/greenhouse, Alopecurus; details: after three weeks
Experimental: as §1, §2, §3, §7, §5, §6

Amaranthus [12] = assay: Pre-emergence test/greenhouse, Amaranthus; details: after three weeks
Experimental: as §1, §2, §3, §7, §5, §6

Sinapis [13] = assay: Pre-emergence test/greenhouse, Sinapis; details: 1000 g of ai./ha, after three weeks
Experimental: as §1, §2, §3, §7, §5, §6

wheat [14] = assay: Pre-emergence test/greenhouse, wheat; details: 500 g of ai./ha, after three weeks
Experimental: as §1, §2, §3, §7, §5, §6

Digitaria [15] = assay: Pre-emergence test/greenhouse, Digitaria; details: 500 g of ai./ha, after three weeks
Experimental: as §1, §2, §3, §7, §5, §6

Chenopodium = assay: Pre-emergence test/greenhouse, Chenopodium; details: 500 g of ai./ha, after three weeks
Experimental: as §1, §2, §3, §7, §5, §6

Solanum [16] = assay: Pre-emergence test/greenhouse, Solanum; details: 500 g of ai./ha, after three weeks
Experimental: as §1, §2, §3, §7, §5, §6

Veronica = assay: Pre-emergence test/greenhouse, Veronica; details: 504 h, 500 g of ai./ha, after three weeks, read-out: degree of damage, Veronica
Experimental: as §1, §2, §3, §7, §5, §6

With CCC(CCc1cc(Br)cs1)Nc1nc(N)nc(C(C)(C)F)n1 (racemic) [Example 2] the “degree of damage, barley” value (barley; 125 g of ai./ha) was 0%, the “degree of damage, wheat” value (wheat [1]; 125 g of ai./ha) was 0% and the “degree of damage, Datura” value (Datura; 125 g of ai./ha) was 95%. For the same compound, the “degree of damage, Ipomoea” value (Ipomoea; 125 g of ai./ha) was 95%, the “degree of damage, Solanum” value (Solanum [2]; 125 g of ai./ha) was 100% and the “degree of damage, Viola” value (Viola; 125 g of ai./ha) was 95%. The activity against weeds (weeds [3]) was “strong activity against weeds” and the “tolerance by crop plants” value [4] was “tolerated well”.
CCC(CCc1ccc(Br)s1)Nc1nc(N)nc(C(C)F)n1 (racemic) [Example 4] was tested, and the “degree of damage, Setaria” value (Setaria; 500 g of ai./ha) was 80%, the “degree of damage, barley” value (barley; 500 g of ai./ha) was 0% and the “degree of damage, wheat” value (wheat [1]; 500 g of ai./ha) was 0%. For the same compound, the “degree of damage, Datura” value (Datura; 500 g of ai./ha) was 95%, the “degree of damage, Ipomoea” value (Ipomoea; 500 g of ai./ha) was 95% and the “degree of damage, Solanum” value (Solanum [2]; 500 g of ai./ha) was 95%. The “degree of damage, Viola” value (Viola; 500 g of ai./ha) was 100%, the activity against weeds (weeds [5]) was “strong activity against weeds” and the “tolerance by crop plants” value [6] was “largely tolerated well”. The activity against weeds (weeds [3]) was “strong activity against weeds” and the “tolerance by crop plants” value [4] was “tolerated well”.
With CCC(CCc1ccc(Br)s1)Nc1nc(N)nc(C(C)(C)F)n1 (racemic) [Example 5] the “degree of damage, barley” value (barley; 500 g of ai./ha) was 0%, the “degree of damage, wheat” value (wheat [1]; 500 g of ai./ha) was 0% and the “degree of damage, Datura” value (Datura; 500 g of ai./ha) was 100%. For the same compound, the “degree of damage, Ipomoea” value (Ipomoea; 500 g of ai./ha) was 95%, the “degree of damage, Solanum” value (Solanum [2]; 500 g of ai./ha) was 100% and the “degree of damage, Viola” value (Viola; 500 g of ai./ha) was 95%. For the same compound, the activity against weeds (weeds [5]) was “strong activity against weeds”, the “tolerance by crop plants” value [6] was “largely tolerated well” and the activity against weeds (weeds [3]) was “strong activity against weeds”. For the same compound, the “tolerance by crop plants” value [4] was “tolerated well”.
CCC(CCc1cc(Br)cs1)Nc1nc(NC(C)=O)nc(C(C)F)n1 (racemic) [Example 6] was tested, and the “degree of damage, barley” value (barley; 500 g of ai./ha) was 0%, the “degree of damage, wheat” value (wheat [1]; 500 g of ai./ha) was 0% and the “degree of damage, Datura” value (Datura; 500 g of ai./ha) was 100%. The “degree of damage, Ipomoea” value (Ipomoea; 500 g of ai./ha) was 100%, the “degree of damage, Solanum” value (Solanum [2]; 500 g of ai./ha) was 100% and the “degree of damage, Viola” value (Viola; 500 g of ai./ha) was 100%. The “degree of damage, Digitaria” value (Digitaria [7]) was 90%, the activity against weeds (weeds [5]) was “strong activity against weeds” and the “tolerance by crop plants” value [6] was “largely tolerated well”. The activity against weeds (weeds [3]) was “strong activity against weeds” and the “tolerance by crop plants” value [4] was “tolerated well”.
For CC(CCCc1cccs1)Nc1nc(N)nc(C(C)(C)F)n1 (stereo not shown) [Example 1, 2-amino-4-(1-fluoro-1-methyl-ethyl)-6-(1-methyl-4-(thien-2-yl)-butylamino)-1,3,5-triazine], the “degree of damage, maize” value (maize [8]) was 30%, the “degree of damage, Setaria” value (Setaria; 1000 g of ai./ha) was 80% and the “degree of damage, Abutilon” value (Abutilon) was 95%. For the same compound, the “degree of damage, Amaranthus” value (Amaranthus [9]) was 100%, the “degree of damage, Sinapis” value (Sinapis [10]) was 100% and the activity against weeds (weeds [5]) was “strong activity against weeds”. For the same compound, the “tolerance by crop plants” value [6] was “largely tolerated well”, the activity against weeds (weeds [3]) was “strong activity against weeds” and the “tolerance by crop plants” value [4] was “tolerated well”.
With CC(CCCc1cccs1)Nc1nc(N)nc(C(C)(C)F)n1 (stereo not shown) [drawing 225] the “degree of damage, maize” value (maize [11]; 1000 g of ai./ha) was 0%, the “degree of damage, Alopecurus” value (Alopecurus; 1000 g of ai./ha) was 80% and the “degree of damage, Amaranthus” value (Amaranthus [12]; 1000 g of ai./ha) was 95%. The “degree of damage, Sinapis” value (Sinapis [13]) was 90%.
With CCC(CCc1ccc(Br)s1)Nc1nc(N)nc(C(C)F)n1 (stereo not shown) [drawing 226] the “degree of damage, maize” value (maize [11]; 500 g of ai./ha) was 0% and the “degree of damage, wheat” value (wheat [14]) was 0%.
With CCC(CCc1ccc(Br)s1)Nc1nc(N)nc(C(C)(C)F)n1 (stereo not shown) [drawing 227] the “degree of damage, maize” value (maize [11]; 500 g of ai./ha) was 0% and the “degree of damage, wheat” value (wheat [14]) was 0%.
In the case of CCC(CCc1cc(Br)cs1)Nc1nc(NC(C)=O)nc(C(C)F)n1 (stereo not shown) [drawing 228], the “degree of damage, maize” value (maize [11]; 500 g of ai./ha) is reported as 0%.
CCC(CCc1cc(Br)cs1)Nc1nc(NC(C)=O)nc(C(C)(C)F)n1 (stereo not shown) [drawing 229] was tested, and the “degree of damage, Alopecurus” value (Alopecurus; 500 g of ai./ha) was 95% and the “degree of damage, wheat” value (wheat [14]) was 0%.
CCC(CCc1sccc1Br)Nc1nc(N)nc(C(C)(C)F)n1 (stereo not shown) [drawing 230] was tested, and the “degree of damage, Amaranthus” value (Amaranthus [12]; 500 g of ai./ha) was 100%.
For CCC(CCc1sccc1Br)Nc1nc(N)nc(C(C)F)n1 (stereo not shown) [drawing 231], the “degree of damage, Amaranthus” value (Amaranthus [12]; 500 g of ai./ha) was 100%.
For CCC(CCc1sccc1Br)Nc1nc(NC(C)=O)nc(C(C)F)n1 (stereo not shown) [drawing 232], the “degree of damage, Amaranthus” value (Amaranthus [12]; 500 g of ai./ha) was 100% and the “degree of damage, wheat” value (wheat [14]) was 0%.
For CCC(CCc1cc(C)sc1C)Nc1nc(N)nc(C(C)F)n1 (stereo not shown) [drawing 233], the “degree of damage, maize” value (maize [11]; 500 g of ai./ha) was 0%, the “degree of damage, Amaranthus” value (Amaranthus [12]; 500 g of ai./ha) was 100% and the “degree of damage, wheat” value (wheat [14]) was 0%.
With CCC(CCc1cc(C)sc1C)Nc1nc(NC(C)=O)nc(C(C)(C)F)n1 (stereo not shown) [drawing 234] the “degree of damage, maize” value (maize [11]; 500 g of ai./ha) was 0% and the “degree of damage, wheat” value (wheat [14]) was 0%.
CCC(CCc1ccc(Br)s1)Nc1nc(N)nc(C(C)F)n1 (stereo not shown) [drawing 236] was tested, and the “degree of damage, Digitaria” value (Digitaria [15]) was 100%, the “degree of damage, Chenopodium” value (Chenopodium) was 100% and the “degree of damage, Solanum” value (Solanum [16]) was 100%. The pest or weed control at 500 g/ha (Veronica) was 100%.
With CCC(CCc1ccc(Br)s1)Nc1nc(N)nc(C(C)(C)F)n1 (stereo not shown) [drawing 237] the “degree of damage, Digitaria” value (Digitaria [15]) was 100%, the “degree of damage, Chenopodium” value (Chenopodium) was 100% and the “degree of damage, Solanum” value (Solanum [16]) was 100%. The pest or weed control at 500 g/ha (Veronica) was 100%.
With CCC(CCc1cc(Br)cs1)Nc1nc(NC(C)=O)nc(C(C)F)n1 (stereo not shown) [drawing 238] the “degree of damage, Chenopodium” value (Chenopodium) was 100% and the pest or weed control at 500 g/ha (Veronica) was 100%.
